The values that follow come from US20040043959A1, “Combination therapies for treating methylthioadenosine phosphorylase deficient cells” (priority 2002, published 2004).

The structures appear in SMILES notation.

For this experiment, the target named is T1, Human MTAP (Homo sapiens, UniProt Q13126).
T1 construct: six-histidine tag (His6) (N); made in house; host or cells: E. coli BL21 DE3
T1 sequence (Q13126 1-283): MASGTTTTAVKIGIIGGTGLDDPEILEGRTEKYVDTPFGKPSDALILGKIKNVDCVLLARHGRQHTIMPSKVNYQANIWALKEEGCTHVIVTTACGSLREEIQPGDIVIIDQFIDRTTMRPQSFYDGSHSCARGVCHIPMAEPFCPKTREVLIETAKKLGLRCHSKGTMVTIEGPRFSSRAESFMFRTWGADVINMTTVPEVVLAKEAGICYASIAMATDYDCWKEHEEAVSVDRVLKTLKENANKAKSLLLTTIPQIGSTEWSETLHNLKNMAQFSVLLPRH
The experiment can be described thus: MTAP substrate assay, coupled spectrophotometric (adenine, xanthine oxidase). The class given is biochemical. As to conditions: 2 nM MTAP; for activity at 50 µM: 10 min, compound 50 uM, relative to MTA at 50 uM, read-out: MT-A—50: initial velocity as a percentage of the initial velocity with MTA as substrate; for MT-A—10: initial velocity as a percentage of the initial velocity with MTA as substrate: compound 10 uM, relative to MTA at 10 uM. As to the method: An enzymatic assay to determine the activity of MTAP against a given substrate was performed. Human MTAP containing an N-terminal six-histidine tag was expressed in E. coli BL21 DE3 cells. The protein was purified to homogeneity by Ni2+ affinity chromatography. Enzymatic activity was measured using a coupled spectrophotometric assay designed to monitor the reaction product adenine (Savarese, T. M., Crabtree, G. W., and Parks, R. E. Jr., (1980) Biochem. Pharmacol. 30, 189-199). Various concentrations of the indicated 5′-deoxymethylthio adenosine (MTA) or substrate were incubated in assay buffer (40 mM potassium phosphate buffer, 1 mM, and DTT 0.8 units/ml xanthine oxidase coupling enzyme) for 5 minutes at 37° C. The reaction was initiated by the addition of MTAP. The exact concentration of enzyme used varied for each substrate tested and ranged from 2 nM to 500 nM. Activity as a function of enzyme concentration was determined for each substrate tested to ensure that the appropriate enzyme concentration was used. Activity was detected by continuous monitoring of absorbance at 305 nm for 10 minutes (ΔE=15,500 M^−1).
Library compounds (10 and 50 uM) were tested using the assay described above with 2 nM MTAP enzyme. The resultant initial velocities are reported as a percentage of the initial velocity observed when MTA is the substrate. MTA controls, 10 and 50 uM concentrations, were run on each plate alongside the library compounds.

For the molecule `COc1ccc(OC)c(SC[C@H]2O[C@@H](n3cnc4c(N)ncnc43)[C@H](O)[C@@H]2O)c1` [2(G)(24), (2R, 3R, 4S, 5S)-2-(6-amino-9H-purin-9-yl)-5-{[(2,5-dimethoxy-phenyl)-thio]methyl}tetrahydrofuran-3,4-diol], the activity at 50 µM was determined as 23% and the “MT-A—10: initial velocity as a percentage of the initial velocity with MTA as substrate” value was found to be 4%.

For the molecule `COc1ccc(SC[C@H]2O[C@@H](n3cnc4c(N)ncnc43)[C@H](O)[C@@H]2O)cc1OC` [2(G)(25), (2R, 3R, 4S, 5S)-2-(6-amino-9H-purin-9-yl)-5-{[(3,4-dimethoxyphenyl)-thio]methyl}tetrahydro-furan-3,4-diol], the activity at 50 µM was 30% and the “MT-A—10: initial velocity as a percentage of the initial velocity with MTA as substrate” value was determined as 5%.

Regarding `CCc1ccccc1SC[C@H]1O[C@@H](n2cnc3c(N)ncnc32)[C@H](O)[C@@H]1O` [2(G)(26), (2R, 3R, 4S, 5S)-2-(6-amino-9H-purin-9-yl)-5-{[(2-ethylphenyl)-thio]methyl}tetrahydro-furan-3,4-diol], the activity at 50 µM was found to be 7% and the “MT-A—10: initial velocity as a percentage of the initial velocity with MTA as substrate” value was found to be 6%.

Take `Nc1ncnc2c1ncn2[C@@H]1O[C@H](CSc2ccccc2O)[C@@H](O)[C@H]1O` [2(G)(27), (2R, 3R, 4S, 5S)-2-(6-amino-9H-purin-9-yl)-5-{[(2-hydroxyphenyl)-thio]methyl}tetrahydro-furan-3,4-diol]: the activity at 50 µM worked out at 23% and the “MT-A—10: initial velocity as a percentage of the initial velocity with MTA as substrate” value amounted to 7%.

For `Cc1ccc(C)c(SC[C@H]2O[C@@H](n3cnc4c(N)ncnc43)[C@H](O)[C@@H]2O)c1` [2(G)(28)], the activity at 50 µM amounted to 4% and the “MT-A—10: initial velocity as a percentage of the initial velocity with MTA as substrate” value was determined as 6%.

With `Nc1ncnc2c1ncn2[C@@H]1O[C@H](CSc2cccc(Br)c2)[C@@H](O)[C@H]1O` [2(G)(29), (2R, 3R, 4S, 5S)-2-(6-amino-9H-purin-9-yl)-5-{[(3-bromophenyl)-thio]methyl}tetrahydro-furan-3,4-diol], the activity at 50 µM amounted to 19% and the “MT-A—10: initial velocity as a percentage of the initial velocity with MTA as substrate” value is 21%.

In the case of `C#CCSc1nnc(SC[C@H]2O[C@@H](n3cnc4c(N)ncnc43)[C@H](O)[C@@H]2O)s1` [2(G)(30), (2R, 3R, 4S, 5S)-2-(6-amino-9H-purin-9-yl)-5-({[5-(prop-2-yn-1-ylthio)-1,3,4-thiodiazol-2-yl]thio}methyl)tetra-hydrofuran-3,4-diol], the activity at 50 µM turned out to be 12% and the “MT-A—10: initial velocity as a percentage of the initial velocity with MTA as substrate” value was 11%.

`Cn1c(O)nnc1SC[C@H]1O[C@@H](n2cnc3c(N)ncnc32)[C@H](O)[C@@H]1O` [2(G)(31), (2R, 3R, 4S, 5S)-2-(6-amino-9H-purin-9-yl)-5-{[(5-hydroxy-4-methyl-4H-1,2,4-triazol-3-yl)-thio]methyl}tetrahydro-furan-3,4-diol]: the activity at 50 µM was found to be 50% and the “MT-A—10: initial velocity as a percentage of the initial velocity with MTA as substrate” value came to 46%.

As to `Cc1cc(C)n2nc(SC[C@H]3O[C@@H](n4cnc5c(N)ncnc54)[C@H](O)[C@@H]3O)nc2n1` [2(G)(32), (2R, 3R, 4S, 5S)-2-(6-amino-9H-purin-9-yl)-5-{[(5,7-dimethyl[1,2,4]-triazolo[1,5-a]pyrimidin-2-yl)thio]methyl}tetra-hydrofuran-3,4-diol], the activity at 50 µM was 7% and the “MT-A—10: initial velocity as a percentage of the initial velocity with MTA as substrate” value was 6%.

On to `Nc1ncnc2c1ncn2[C@@H]1O[C@H](CSc2nccc(C(F)(F)F)n2)[C@@H](O)[C@H]1O` [2(G)(33), (2R, 3R, 4S, 5S)-2-(6-amino-9H-purin-9-yl)-5-({[4-(trifluoromethyl)-pyr-imidin-2-yl]thio}methyl)-tetrahydrofuran-3,4-diol], for which the activity at 50 µM is 36% and the “MT-A—10: initial velocity as a percentage of the initial velocity with MTA as substrate” value turned out to be 28%.

Regarding `Cc1ccc(C(C)(C)C)cc1SC[C@H]1O[C@@H](n2cnc3c(N)ncnc32)[C@H](O)[C@@H]1O` [2(G)(34), (2R, 3R, 4S, 5S)-2-(6-amino-9H-purin-9-yl)-5-{[(5-tert-butyl-2-methyl-phenyl)thio]methyl}-tetrahydrofuran-3,4-diol], the activity at 50 µM is 3% and the “MT-A—10: initial velocity as a percentage of the initial velocity with MTA as substrate” value was 2%.

In the case of `CC(C)c1ccc(SC[C@H]2O[C@@H](n3cnc4c(N)ncnc43)[C@H](O)[C@@H]2O)cc1` [2(G)(35), (2R, 3R, 4S, 5S)-2-(6-amino-9H-purin-9-yl)-5-{[(4-isopropylphenyl)-thio]methyl}tetrahydro-furan-3,4-diol], the activity at 50 µM is 11% and the “MT-A—10: initial velocity as a percentage of the initial velocity with MTA as substrate” value is 15%.

With `CCOC(=O)c1cnc(SC[C@H]2O[C@@H](n3cnc4c(N)ncnc43)[C@H](O)[C@@H]2O)nc1N` [2(G)(36)], the activity at 50 µM came to 40% and the “MT-A—10: initial velocity as a percentage of the initial velocity with MTA as substrate” value was determined as 35%.

On to `Cc1occc1SC[C@H]1O[C@@H](n2cnc3c(N)ncnc32)[C@H](O)[C@@H]1O` [2(G)(37), (2R, 3R, 4S, 5S)-2-(6-amino-9H-purin-9-yl)-5-{[(2-methyl-3-furyl)thio]methyl}tetra-hydrofuran-3,4-diol], for which the activity at 50 µM came out at 26% and the “MT-A—10: initial velocity as a percentage of the initial velocity with MTA as substrate” value amounted to 10%.

Turning to `Nc1ncnc2c1ncn2[C@@H]1O[C@H](CSCC(F)(F)F)[C@@H](O)[C@H]1O` [2(G)(38), (2R, 3R, 4S, 5S)-2-(6-amino-9H-purin-9-yl)-5-{[(2,2,2-trifluoroethyl)-thio]methyl}tetrahydro-furan-3,4-diol], the activity at 50 µM came out at 32% and the “MT-A—10: initial velocity as a percentage of the initial velocity with MTA as substrate” value is 30%.

In the case of `CC(C)(C)OC(=O)NCCSC[C@H]1O[C@@H](n2cnc3c(N)ncnc32)[C@H](O)[C@@H]1O` [2(G)(39), tert-butyl [2-({[(2S, 3S, 4R, 5R)-5-(6-amino-9H-purin-9-yl)-3,4-dihydroxytetrahydro-furan-2-yl]methyl}thio)-ethyl]carbamate], the activity at 50 µM came to 8% and the “MT-A—10: initial velocity as a percentage of the initial velocity with MTA as substrate” value is recorded as 7%.

Consider `Cc1cc(=O)oc2cc(SC[C@H]3O[C@@H](n4cnc5c(N)ncnc54)[C@H](O)[C@@H]3O)ccc12` [2(G)(40), 7-({[(2S, 3S, 4R, 5R)-5-(6-amino-9H-purin-9-yl)-3,4-dihydroxytetrahydro-furan-2-yl]methyl}thio)-4-methyl-2H-chromen-2-one], for which the activity at 50 µM worked out at 10% and the “MT-A—10: initial velocity as a percentage of the initial velocity with MTA as substrate” value came to 6%.

With `Nc1ncnc2c1ncn2[C@@H]1O[C@H](CSc2ncc(C(F)(F)F)cc2Cl)[C@@H](O)[C@H]1O` [2(G)(41), (2R, 3R, 4S, 5S)-2-(6-amino-9H-purin-9-yl)-5-({[3-chloro-5-(trifluoromethyl)pyridin-yl]thio}methyl)tetra-hydrofuran-3,4-diol], the activity at 50 µM amounted to 7% and the “MT-A—10: initial velocity as a percentage of the initial velocity with MTA as substrate” value was determined as 7%.

`Nc1ncnc2c1ncn2[C@@H]1O[C@H](CSc2ccc3ccccc3n2)[C@@H](O)[C@H]1O` [2(G)(42), (2R, 3R, 4S, 5S)-2-(6-amino-9H-purin-9-yl)-5-[(quinolin-2-ylthio)methyl]-tetrahydrofuran-3,4-diol]: the activity at 50 µM amounted to 47% and the “MT-A—10: initial velocity as a percentage of the initial velocity with MTA as substrate” value is 38%.

For `Cc1cc(C)c(C#N)c(SC[C@H]2O[C@@H](n3cnc4c(N)ncnc43)[C@H](O)[C@@H]2O)n1` [2(G)(43), 2-({[(2S, 3S, 4R, 5R)-5-(6-amino-9H-purin-9-yl)-dihydroxytetrahydro-furan-2-yl]methyl}thio)-4,6-dimethylnicotino-nitrile], the activity at 50 µM was found to be 7% and the “MT-A—10: initial velocity as a percentage of the initial velocity with MTA as substrate” value was determined as 5%.

With `C=CCSC[C@H]1O[C@@H](n2cnc3c(N)ncnc32)[C@H](O)[C@@H]1O` [2(G)(44), (2R, 3R, 4S, 5S)-2-(6-amino-9H-purin-9-yl)-5-[(allythio)methyl]tetra-hydrofuran-3,4-diol], the activity at 50 µM amounted to 82% and the “MT-A—10: initial velocity as a percentage of the initial velocity with MTA as substrate” value came out at 77%.

For `CC(C)SC[C@H]1O[C@@H](n2cnc3c(N)ncnc32)[C@H](O)[C@@H]1O` [2(G)(45), (2R, 3R, 4S, 5S)-2-(6-amino-9H-purin-9-yl)-5-[(isopropylthio)methyl]-tetrahydrofuran-3,4-diol], the activity at 50 µM is 57% and the “MT-A—10: initial velocity as a percentage of the initial velocity with MTA as substrate” value stood at 53%.
